Converted amounts (≈) assume the structure as drawn.
Assays:
Format in all cases: cell-based
[1] = tested on: dengue virus type-2 (DENV-2); test: Inhibition of DENV-2 attachment to host cells, baicalein added simultaneously with virus
Method: (§1) In order to determine the prophylactic anti-dengue activity of baicalein, different concentrations of baicalein (6.25 μg/ml, 12.50 μg/ml, 25.0 μg/ml, and 50.0 μg/ml) were added to the Vero cell monolayers five hours before adding virus. After five hours of pre-infection treatment, the cells were washed twice with phosphate-buffered saline (PBS). Then, 200 FFU (focus-forming units) of dengue virus type-2 (DENV-2) was inoculated to the cells to produce infected cells. The infected cells were incubated at 37° C. for one hour. Then the infected cells were washed two times with PBS to eliminate the unadsorped viruses. Growth medium (the growing medium is but not limited to Eagle's minimal essential medium; EMEM) was supplemented with 2% fetal bovine serum (FBS), 1 mM non-essential amino acid solution, 1 mM L-glutamine solution, and 1.5% carboxymethyl cellulose (CMC) solution) was added to the infected cells in the microplate. The microplate was incubated at 37° C. for four days. The number of viral foci formed and the viral RNA level were determined. The prophylactic activity of baicalein against DENV-2 was measured by the decrease in the number of viral foci and reduction of viral RNA synthesis. The number of DENV-2 foci was counted using a stereomicroscope and the titer of virus was expressed as FFU. The percentage of foci reduction (RF %) compared against controls was calculated as follows: RF (%)=(C−T)×100/C, where, C is the mean of the number of foci for negative control (without baicalein) and T is the mean of the number of foci in treated wells. Reduction in the number of viral foci was further verified using quantitative RT-PCR (qRT-PCR) which determine the copy number of dengue virus specific RNA. The same procedure was repeated to Vero cells which were treated with only virus suspension without baicalein (non-treated cells) and this served as the untreated control.
Inhibition of DENV-2 attachment to host cells was evaluated by adding different concentrations (3.12 μg/ml, 6.25 μg/ml, 12.5 μg/ml, 25.0 μg/ml, and 50.0 μg/ml) of baicalein to Vero cells simultaneously with 200 FFU DENV-2. Then, the infected Vero cells were incubated at 37° C. for one hour in the presence of the respective concentration of baicalein. Following after, the infected Vero cells were washed two times using sterile PBS. Growth medium supplemented with 2% fetal bovine serum (FBS), 1 mM non-essential amino acid solution, 1 mM L-glutamine solution, and 1.5% carboxymethyl cellulose (CMC) solution) was added to the infected cells in the microplate. […] The number of viral foci formed and the viral RNA level were determined. The amount of viral RNA synthesis was determined using quantitative real time polymerase chain reaction amplification (qRT-PCR).

[2] = tested on: dengue virus type-2 (DENV-2); test: Prophylactic anti-dengue activity, pre-treatment of Vero cells (foci reduction and qRT-PCR)
Method: as §1

[3] = tested on: dengue virus type-2 (DENV-2); test: Direct virucidal activity against DENV-2
Method: as §1, with “The same procedure was repeated to Vero cells which were treated with only virus suspension without baicalein (non-treated cells) and this served as the untreated control.” left out
In order to determine the direct virucidal activity of baicalein against DENV-2, DENV-2 suspension containing 200 FFU was incubated with different concentrations of baicalein (1.56 μg/ml, 3.12 μg/ml, 6.25 μg/ml, 12.50 μg/ml, 25.0 μg/ml) at 37° C. for two hours to produce a treated viral suspension. […] The number of viral foci formed and the viral RNA level were determined.

[4] = tested on: Japanese encephalitis virus; test: Antiviral activity on Japanese encephalitis virus replication, baicalein added post-infection; conditions: 50 μg/ml, added post-infection to Vero cells, two days, vs non-treated cells
Method: In order to evaluate the antiviral activity of baicalein after virus attachment to cells, virus inoculum consisting of 200 FFU JE was added to the monolayer Vero cells and the virus was allowed to adsorp to the Vero cells for one hour at a temperature of 37° C. Unadsorped viruses were removed by rinsing the Vero cells with sterile PBS for two times. Different concentrations of baicalein (12.5 μg/ml, 25.0 μg/ml, 50.0 μg/ml and 100.0 μg/ml) were mixed with 1.5% CMC containing cell-growth medium supplemented with 2% FBS respectively before incubated at 37° C. for two days. Then, the number of viral foci was determined.

[5] = tested on: dengue virus type-2 (DENV-2); test: Antiviral activity on DENV-2 replication, baicalein added post-infection
Method: as §1, with “The same procedure was repeated to Vero cells which were treated with only virus suspension without baicalein (non-treated cells) and this served as the untreated control.” left out
In order to evaluate the antiviral activity of baicalein after virus attachment to cells, virus inoculum consisting of 200 FFU DENV-2 was added to the monolayer Vero cells and the virus was allowed to adsorp to the Vero cells for one hour at a temperature of 37° C. […] Then, the number of viral foci and viral RNA level were measured.

[6] = 12.5 μg/ml, DENV-2 suspension incubated with baicalein at 37° C. for two hours before infecting Vero cells
[7] = 50 μg/ml, added after virus adsorption to Vero cells, four days, vs non-treated cells

O=c1cc(-c2ccccc2)oc2cc(O)c(O)c(O)c12 [baicalein, 5,6,7-Trihydroxyflavone]
decrease in level of DENV-2 RNA production ([1]; 25 μg/ml, added simultaneously with DENV-2 to Vero cells, qRT-PCR, vs non-treated cells): 90.3%±1.6 | reduction in number of dengue virus foci formed ([1]; 25 μg/ml, added simultaneously with DENV-2 to Vero cells, vs non-treated cells): 76.6% | decrease in DENV-2 RNA level at 50 μg/ml compared with 25 μg/ml ([1]; 50 μg/ml, added simultaneously with DENV-2): Higher decrease in RNA level was observed | IC50 ([1]; Dengue virus, DENV2, Vero): 7.14 µg/mL (≈ 26.4 µM) | reduction in level of dengue virus type-2 RNA production ([2]; 50 μg/ml, Vero cells pre-treated five hours before infection, qRT-PCR, vs non-treated cells): 39.5%±0.8 | reduction in number of dengue virus foci formed ([2]; 50 μg/ml, Vero cells pre-treated five hours before infection, vs non-treated cells): ~37% | IC50 ([2]; Dengue virus, DENV2, Vero, read-out: IC50 in pretreatment of cells): 109 µg/mL (≈ 403 µM) | decrease in level of DENV-2 RNA production [3, 6]: 99.2%±0.4 | reduction in number of dengue virus foci formed [3, 6]: 97.93% | IC50 ([3]; Dengue virus, DENV2, 2 h): 1.55 µg/mL (≈ 5.74 µM) | reduction in number of Japanese encephalitis virus foci formed [4]: > 90% | decrease in level of DENV-2 RNA production [5, 7]: 84.9%±2.15 | reduction in number of dengue virus foci formed [5, 7]: 78.3% | IC50 ([5]; Dengue virus, DENV2, Vero): 6.46 µg/mL (≈ 23.9 µM)
